Source: US12479840B2, “HMG-CoA reductase degradation inducing compound” (Uppthera, priority 2020, dated 2025)

The molecules below were run against T1, HMG-CoA reductase (Homo sapiens, UniProt P04035) (assay: HMG-CoA reductase (HMGCR) degradation in HepG2 cells by western blotting). Details: treated for 18 hours, ratio of HMG-CoA reductase to GAPDH, read-out: DC50.
T1 construct: endogenous in cells; host or cells: HepG2 (Korea Cell Line Bank)
T1 sequence (P04035 1-888): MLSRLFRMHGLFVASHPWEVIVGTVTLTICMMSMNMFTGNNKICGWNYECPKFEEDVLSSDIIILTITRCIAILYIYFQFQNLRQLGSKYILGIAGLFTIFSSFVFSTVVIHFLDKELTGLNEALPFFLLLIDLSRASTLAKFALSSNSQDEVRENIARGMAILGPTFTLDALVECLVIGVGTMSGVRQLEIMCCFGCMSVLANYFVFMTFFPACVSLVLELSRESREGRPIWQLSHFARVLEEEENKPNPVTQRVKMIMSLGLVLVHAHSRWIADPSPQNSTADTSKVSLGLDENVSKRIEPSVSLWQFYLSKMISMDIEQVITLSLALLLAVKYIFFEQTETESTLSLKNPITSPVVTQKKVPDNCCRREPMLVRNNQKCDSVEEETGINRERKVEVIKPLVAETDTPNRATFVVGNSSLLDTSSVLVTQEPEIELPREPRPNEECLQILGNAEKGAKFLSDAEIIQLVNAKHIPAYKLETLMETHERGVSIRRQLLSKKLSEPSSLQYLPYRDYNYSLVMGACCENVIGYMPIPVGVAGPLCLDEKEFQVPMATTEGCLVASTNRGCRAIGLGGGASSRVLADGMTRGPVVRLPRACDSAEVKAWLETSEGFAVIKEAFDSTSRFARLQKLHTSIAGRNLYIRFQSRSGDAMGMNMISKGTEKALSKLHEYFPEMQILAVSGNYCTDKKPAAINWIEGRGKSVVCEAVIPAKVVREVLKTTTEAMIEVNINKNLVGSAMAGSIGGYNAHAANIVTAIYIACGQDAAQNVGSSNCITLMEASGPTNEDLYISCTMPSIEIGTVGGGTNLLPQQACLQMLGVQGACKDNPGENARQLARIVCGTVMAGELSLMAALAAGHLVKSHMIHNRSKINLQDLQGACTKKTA
Format: cell-based
Summary of the method: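 HepG2 cells (passage P105–P110) treated 18 hours with compounds in 10-point three-fold dilutions from 3 μM. RIPA lysates (15 μg protein, BCA-quantified) run on SDS-PAGE and immunoblotted for HMGCR (1:500) with GAPDH (1:20000) as loading control, primary antibodies 16 hours at 4° C.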
Molecule `C[C@H]1C=C2C=C[C@H](C)[C@H](CC[C@@H]3C[C@@H](O)CC(=O)O3)[C@H]2[C@@H](OC(=O)NCCOCCOCCOCCOCCOCCOCCNc2cccc3c2C(=O)N(C2CCC(=O)NC2=O)C3=O)C1` (stereo partly drawn) [Compound 44, (1S,3R,7S,8S,8aR)-8-(2-((2R,4R)-4-hydroxy-6-oxotetrahydro-2H-pyran-2-yl)ethyl)-3,7-dimethyl-1,2,3,7,8,8a-hexahydronaphthalen-1-yl (20-((2-(2,6-dioxopiperidin-3-yl)-1,3-dioxoisoindolin-4-yl)amino)-3,6,9,12,15,18-hexaoxaicosyl)carbamate] has a DC50 of less than 50 nM.
`C[C@H]1C=C2C=C[C@H](C)[C@H](CC[C@@H]3C[C@@H](O[Si](C)(C)C(C)(C)C)CC(=O)O3)[C@H]2[C@@H](OC(=O)NCCOCCOCCOCCNc2ccccc2)C1` [Compound 45, (1S,3R,7S,8S,8aR)-8-(2-((2R,4R)-4-((tert-butyldimethylsilyl)oxy)-6-oxotetrahydro-2H-pyran-2-yl)ethyl)-3,7-dimethyl-1,2,3,7,8,8a-hexahydronaphthalen-1-yl (2-(2-(2-(2-(phenylamino)ethoxy)ethoxy)ethoxy)ethyl)carbamate] showed a DC50 greater than 500 nM.
`C[C@H]1C=C2C=C[C@H](C)[C@H](CC[C@@H]3C[C@@H](O[Si](C)(C)C(C)(C)C)CC(=O)O3)[C@H]2[C@@H](OC(=O)NCCOCCOCCNc2cccc3c2C(=O)N(C2CCC(=O)NC2=O)C3=O)C1` (stereo partly drawn) [Compound 46, (1S,3R,7S,8S,8aR)-8-(2-((2R,4R)-4-((tert-butyldimethylsilyl)oxy)-6-oxotetrahydro-2H-pyran-2-yl)ethyl)-3,7-dimethyl-1,2,3,7,8,8a-hexahydronaphthalen-1-yl (2-(2-(2-((2-(2,6-dioxopiperidin-3-yl)-1,3-dioxoisoindolin-4-yl)amino)ethoxy)ethoxy)ethyl)carbamate] was tested, and the DC50 was less than 50 nM.
Work on `C[C@H]1C=C2C=C[C@H](C)[C@H](CC[C@@H]3C[C@@H](O[Si](C)(C)C(C)(C)C)CC(=O)O3)[C@H]2[C@@H](OC(=O)NCCOCCOCCOCCNc2cccc3c2C(=O)N(C2CCC(=O)NC2=O)C3=O)C1` (stereo partly drawn) [Compound 47, (1S,3R,7S,8S,8aR)-8-(2-((2R,4R)-4-((tert-butyldimethylsilyl)oxy)-6-oxotetrahydro-2H-pyran-2-yl)ethyl)-3,7-dimethyl-1,2,3,7,8,8a-hexahydronaphthalen-1-yl (2-(2-(2-(2-((2-(2,6-dioxopiperidin-3-yl)-1,3-dioxoisoindolin-4-yl)amino)ethoxy)ethoxy)ethoxy)ethyl)carbamate] yielded a DC50 of less than 50 nM.
`C[C@H]1C=C2C=C[C@H](C)[C@H](CC[C@@H]3C[C@@H](O[Si](C)(C)C(C)(C)C)CC(=O)O3)[C@H]2[C@@H](OC(=O)NCCOCCOCCOCCOCCNc2cccc3c2C(=O)N(C2CCC(=O)NC2=O)C3=O)C1` (stereo partly drawn) [Compound 48, (1S,3R,7S,8S,8aR)-8-(2-((2R,4R)-4-((tert-butyldimethylsilyl)oxy)-6-oxotetrahydro-2H-pyran-2-yl)ethyl)-3,7-dimethyl-1,2,3,7,8,8a-hexahydronaphthalen-1-yl (14-((2-(2,6-dioxopiperidin-3-yl)-1,3-dioxoisoindolin-4-yl)amino)-3,6,9,12-tetraoxatetradecyl)carbamate] gave a DC50 of less than 50 nM.
`C[C@H]1C=C2C=C[C@H](C)[C@H](CC[C@@H]3C[C@@H](O[Si](C)(C)C(C)(C)C)CC(=O)O3)[C@H]2[C@@H](OC(=O)NCCOCCOCCOCCOCCOCCNc2cccc3c2C(=O)N(C2CCC(=O)NC2=O)C3=O)C1` (stereo partly drawn) [Compound 49, (1S,3R,7S,8S,8aR)-8-(2-((2R,4R)-4-((tert-butyldimethylsilyl)oxy)-6-oxotetrahydro-2H-pyran-2-yl)ethyl)-3,7-dimethyl-1,2,3,7,8,8a-hexahydronaphthalen-1-yl (17-((2-(2,6-dioxopiperidin-3-yl)-1,3-dioxoisoindolin-4-yl)amino)-3,6,9,12,15-pentaoxaheptadecyl)carbamate] gave a DC50 of less than 50 nM.
With `C[C@H]1C=C2C=C[C@H](C)[C@H](CC[C@@H]3C[C@@H](O[Si](C)(C)C(C)(C)C)CC(=O)O3)[C@H]2[C@@H](OC(=O)NCCOCCOCCOCCOCCOCCOCCNc2cccc3c2C(=O)N(C2CCC(=O)NC2=O)C3=O)C1` (stereo partly drawn) [Compound 50, (1S,3R,7S,8S,8aR)-8-(2-((2R,4R)-4-((tert-butyldimethylsilyl)oxy)-6-oxotetrahydro-2H-pyran-2-yl)ethyl)-3,7-dimethyl-1,2,3,7,8,8a-hexahydronaphthalen-1-yl (20-((2-(2,6-dioxopiperidin-3-yl)-1,3-dioxoisoindolin-4-yl)amino)-3,6,9,12,15,18-hexaoxaicosyl)carbamate] the DC50 was less than 50 nM.
With `C[C@H]1C=C2C=C[C@H](C)[C@H](CC[C@@H]3C[C@@H](O[Si](C)(C)C(C)(C)C)CC(=O)O3)[C@H]2[C@@H](OC(=O)NCCCCCNc2cccc3c2C(=O)N(C2CCC(=O)NC2=O)C3=O)C1` (stereo partly drawn) [Compound 51, (1S,3R,7S,8S,8aR)-8-(2-((2R,4R)-4-((tert-butyldimethylsilyl)oxy)-6-oxotetrahydro-2H-pyran-2-yl)ethyl)-3,7-dimethyl-1,2,3,7,8,8a-hexahydronaphthalen-1-yl (5-((2-(2,6-dioxopiperidin-3-yl)-1,3-dioxoisoindolin-4-yl)amino)pentyl)carbamate] the DC50 was less than 50 nM.
`C[C@H]1C=C2C=C[C@H](C)[C@H](CC[C@@H]3C[C@@H](O[Si](C)(C)C(C)(C)C)CC(=O)O3)[C@H]2[C@@H](OC(=O)NCCCCCCNc2cccc3c2C(=O)N(C2CCC(=O)NC2=O)C3=O)C1` (stereo partly drawn) [Compound 52, (1S,3R,7S,8S,8aR)-8-(2-((2R,4R)-4-((tert-butyldimethylsilyl)oxy)-6-oxotetrahydro-2H-pyran-2-yl)ethyl)-3,7-dimethyl-1,2,3,7,8,8a-hexahydronaphthalen-1-yl (6-((2-(2,6-dioxopiperidin-3-yl)-1,3-dioxoisoindolin-4-yl)amino)hexyl)carbamate] was tested, and the DC50 was less than 50 nM.
`C[C@H]1C=C2C=C[C@H](C)[C@H](CC[C@@H]3C[C@@H](O[Si](C)(C)C(C)(C)C)CC(=O)O3)[C@H]2[C@@H](OC(=O)NCCCCCCCNc2cccc3c2C(=O)N(C2CCC(=O)NC2=O)C3=O)C1` (stereo partly drawn) [Compound 53, (1S,3R,7S,8S,8aR)-8-(2-((2R,4R)-4-((tert-butyldimethylsilyl)oxy)-6-oxotetrahydro-2H-pyran-2-yl)ethyl)-3,7-dimethyl-1,2,3,7,8,8a-hexahydronaphthalen-1-yl (7-((2-(2,6-dioxopiperidin-3-yl)-1,3-dioxoisoindolin-4-yl)amino)heptyl)carbamate] showed a DC50 of less than 50 nM.
With `C[C@H]1C=C2C=C[C@H](C)[C@H](CC[C@@H]3C[C@@H](O[Si](C)(C)C(C)(C)C)CC(=O)O3)[C@H]2[C@@H](OC(=O)NCCCCCCCCNc2cccc3c2C(=O)N(C2CCC(=O)NC2=O)C3=O)C1` (stereo partly drawn) [Compound 54, (1S,3R,7S,8S,8aR)-8-(2-((2R,4R)-4-((tert-butyldimethylsilyl)oxy)-6-oxotetrahydro-2H-pyran-2-yl)ethyl)-3,7-dimethyl-1,2,3,7,8,8a-hexahydronaphthalen-1-yl (8-((2-(2,6-dioxopiperidin-3-yl)-1,3-dioxoisoindolin-4-yl)amino)octyl)carbamate] the DC50 was less than 50 nM.
